This note sets out measurements from patent publication US20130156795A1, “METHODS FOR INHIBITION OF CELL PROLIFERATION, SYNERGISTIC TRANSCRIPTION MODULES AND USES THEREOF” (priority 2009, published 2013).

One data set deals with T98G glioma cell line. Description: ZNF238 and ZNF238-target mRNA expression by quantitative PCR in T98G cells. It is filed as cell-based, human. The method, then:
FIG. 12A, Graphical representation of the promoter of ZNF238. The region between −1800 and −3400 contains stretches of CpG islands. FIG. 12B, 5-Azacytidine induces expression of ZNF238. T98G cells were treated with 5-Azacytidine at the indicated concentrations for 3 days. Expression of ZNF238 was analyzed by quantitative PCR. […] HPRT was used as control for normalization.
Computational and expression predictions converged towards the identification of a highly vulnerable structure of the regulatory region controlling ZNF238 expression. The ZNF238 promoter/enhancer is unusually rich in evolutionarily conserved CpG islands (FIG. 12A), which are targeted by DNA methyltransferases leading to gene expression silencing. Methylation of regulatory DNA regions is a common mechanism in human cancer and is implicated in the constitutive silencing of tumor suppressor genes in malignant glioma (109; herein incorporated by reference in its entirety). Thus, whether promoter methylation induces silencing of ZNF238 was considered. Pharmacological inhibition of methylation with an inhibitor of DNA methyltransferases (5-Azacytidine) elevated the expression of ZNF238 mRNA in the T98G glioma cell line (FIG. 12B) and repressed the expression of SerpineH1 and CH3IRL1 (FIG. 12C), two mesenchymal genes predicted as ZNF238 targets by ARACNe (FIG. 1).

The subject of data set [1] is C/EBPbeta-luciferase reporter. Description: C/EBPbeta-luciferase reporter screen in SNB19 glioma cells. It is filed as cell-based, human.
Experimental: SNB19 human glioma cells were stably transfected with the C/EBPbeta-driven luciferase plasmid (FIG. 36). Several clones were isolated and propagated. […] Cells were transfected with control siRNAs or siRNA oligonucleotides targeting C/EBPbeta (for example, SEQ ID NO: 228 or SEQ ID NO: 229). The control siRNA sequence is the Dharmacon ON-TARGETpIus Non-targeting Pool (Cat#: D-001810-10-20). Luciferase activity was measured on a luminometer and the results are shown after normalization with renilla.
A multimerized C/EBPbeta-luciferase reporter was stably introduced in SNB19 and a screening of ˜9,800 compounds was done to identify positive candidates.
Another data set deals with phospho-STAT3. Description: Inhibition of active STAT3 (phospho-STAT3). It is filed as cell-based, human.
In data set [2] the test system is SNB19 human glioma cell line. The experiment in a line: Gene expression profiling and GSEA after shRNA silencing of MR-TFs in SNB19. It is filed as cell-based. Conditions: shRNA knock-down in human glioma cells; for Enrichment of ATF2 regulon on TF-knock-down gene expression profile by GSEA, nES: Control TF regulon ATF2 (negative control), size 386; for Enrichment of SOX15 regulon on TF-knock-down gene expression profile by GSEA, nES: Control TF regulon SOX15 (negative control), size 213; for Enrichment of ZNF277 regulon on TF-knock-down gene expression profile by GSEA, nES: Control TF regulon ZNF277 (negative control), size 238; for Enrichment of ZNF500 regulon on TF-knock-down gene expression profile by GSEA, nES: Control TF regulon ZNF500 (negative control), size 469; for Enrichment of the MGES on genes downregulated after MR-TF knock-down, nES: MGES Enrich.; for Enrichment of C/EBPβ regulon on TF-knock-down gene expression profile by GSEA, nES: Module TF regulon C/EBPβ, size 209; for Enrichment of FosL2 regulon on TF-knock-down gene expression profile by GSEA, nES: Module TF regulon FosL2, size 403; for Enrichment of Runx1 regulon on TF-knock-down gene expression profile by GSEA, nES: Module TF regulon Runx1, size 490; for Enrichment of Stat3 regulon on TF-knock-down gene expression profile by GSEA, nES: Module TF regulon Stat3, size 366; for Enrichment of bHLH-B2 regulon on TF-knock-down gene expression profile by GSEA, nES: Module TF regulon bHLH-B2, size 226. An excerpt: To test whether specific gene signatures were globally differentially regulated, we used the Gene Set Enrichment analysis method (A31; herein incorporated by reference in its entirety). In this method, the Kolmogorov-Smirnoff test is used to determine whether two gene lists are statistically correlated. In this case, one list includes genes on the microarray expression profile dataset, ranked by their differential expression statistics across two conditions (e.g. ectopically expressed Stat3C/C/EBPβ vs. control), from most over- to most underexpressed. The other list contains non-ranked genes in a specific signature (e.g. mesenchymal). This is very useful to detect, for instance, situations where signature genes can be differentially expressed as a whole, even though the fold-change can be small for each gene in isolation. In this case, a gene-by-gene test, such as a T-test, cannot reveal statistical significance. The algorithm was set to implement weighted scoring scheme and the enrichment score significance was assessed by 1000 permutation tests.
Next, lentivirus-mediated shRNA silencing of the five TFs (C/EBPβ, Stat3, bHLH-B2, FosL2, and Runx1) was performed in the SNB19 human glioma cell line, followed by gene expression profiling using HT-12v3 Illumina BeadArrays in triplicate.
RNA amplification for Array analysis was performed with Illumina TotalPrep RNA Amplification Kit (Ambion). 1.5 μg of amplified RNA was hybridized on Illumina HumanHT-12v3 or MouseWG-6 expression BeadChip according to the manufacturer's instructions. Hybridization data was obtained with an iScan BeadArray scanner (Illumina) and pre-processed by variance stabilization and robust spline normalization implemented in the lumi package under the R-system (Du, P., Kibbe, W. A. and Lin, S. M., (2008) ‘lumi: a pipeline for processing Illumina microarray’, Bioinformatics 24(13):1547-1548; herein incorporated by reference in its entirety).

In the next data set the test system is SNB19 glioma cells. Description: Intracranial xenograft of shRNA-transduced SNB19 glioma cells in immunocompromised mice. It is filed as in vivo, mouse. Conditions: SNB19 xenografted into striatum, 120 days from injection. Here is the method:
Next, it was considred whether loss of C/EBPβ and Stat3 in glioma cells reduced tumor aggressiveness in vitro and in vivo. […] Then, the impact of C/EBPβ and Stat3 knockdown for brain tumorigenesis in vivo was determined. SNB19 cells transduced with non-targeting control shRNA lentivirus or shRNA targeting C/EBPβ and/or Stat3 were xenografted into the striatum of immunocompromised mice. […] However, only one of four mice from the shC/EBPβ and one of five mice from the shC/EBPβ+shStat3 groups developed tumors after 120 days from the injection (FIG. 22B). […] Conversely, the single tumor in the shC/EBPβ+shStat3 group grew well circumscribed and was less angiogenic.
Intracranial injection of SNB19 glioma cell line and GBM-derived BTICs was performed in 6-8 weeks NOD/SCID mice (Charles River laboratories) in accordance with guidelines of the International Agency for Reserch on Cancer's Animal Care and Use Committee. Briefly, 48 h after lentiviral infection, 2×10^5 SNB19 or 3×10^5 BTICs were injected 2 mm lateral and 0.5 mm anterior to the bregma, 3 mm below the skull. Mice were monitored daily and sacrificed when neurological symptoms appeared. Kaplan-Meier survival curve of the mice injected with SNB19 glioma cells was generated using the DNA Statview software package (AbacusConcepts, Berkeley Calif.).

In the next data set the test system is GBM-BTICs and SNB19. The experiment in a line: qRT-PCR of C/EBPβ and Stat3 mRNA after lentivirus-mediated shRNA silencing. The class given is cell-based, human. The method, then: For loss-of-function experiments, lentivirus-mediated shRNA silencing of C/EBPβ and Stat3 in the human glioma cell line SNB19 and in early-passage cultures of tumor cells derived from primary GBM was performed. The latter were grown in serum-free conditions, in the presence of the growth factors bFGF and EGF. These culture conditions preserve the tumor stem cell-like features of GBM-derived cells and propel the formation of GBM-like tumors after intracranial transplantation in immunodeficient mice {Lee, 2006; herein incorporated by reference in its entirety} (GBM-derived brain tumor initiating cells, GBM-BTICs, see FIG. 22 for the analysis of their tumor-initiating capacity). At least three replicates for each condition were produced and a global dataset of 89 individual samples was generated, including 55 knockdown experiments in human glioma cells and 34 ectopic expression experiments in mouse NSCs. Gene expression profiles of human samples were produced with the HT-12v3 Illumina BeadArrays (including 24,385 human genes), while murine samples were profiled on mouse-6V2 Illumina BeadArrays (including 20,311 mouse genes). 14,857 murine genes were mapped to human orthologs, using the homologene database (http://www.ncbi.nlm.nih.gov/homologene; herein incorporated by reference in its entirety). Of the 149 genes in the MGES, 118 could be mapped to murine genes represented on the mouse-6V2 array.
Reciprocal changes followed ectopic expression of the two TFs in C17.2 and NSC cells (Table 10) qRT-PCR values and microarray-based measurements were highly correlated for Stat3 but not for C/EBPβ mRNA (FIG. 24). Moreover, the Stat3C and C/EBPβ constructs used in the ectopic expression experiments in mouse NSCs lack the 3′ UTR sequence targeted by the Illumina probes. Thus, the qRT-PCR values for C/EBPβ and Stat3 were used, rather than the microarray measurements, as more accurate read-outs for their mRNA expression across the 89 samples.
RNA was prepared with RiboPure kit (Ambion), and used for first strand cDNA synthesis using random primers and SuperScriptll Reverse Transcriptase (Invitrogen). QRT-PCR was performed using Power SYBR Green PCR Master Mix (Applied Biosystems). QRT-PCR results were analyzed by the ΔΔCT method (Livak & Schmittgen, Methods 25:402, 2001; herein incorporated by reference in its entirety) using GAPDH or 18S as housekeeping genes.
Lentiviral expression vectors carrying shRNAs were purchased from Sigma. To generate lentiviral particles, each shRNA expression plasmid was co-transfected with pCMV-dR8.91 and pCMV-MD2.G vectors into human embryonic kidney 293T cells using Fugene 6 (Roche). Lentiviral infections were performed as described {Zhao, 2008; herein incorporated by reference in its entirety}.

“Also recorded” adds a separate entry of the source. Like-named read-outs stand apart in the source and are kept apart here.

In the case of `Nc1ncn([C@@H]2O[C@H](CO)[C@@H](O)[C@H]2O)c(=O)n1` [5-Azacytidine], in the data set on T98G glioma cell line, the “expression of CH3IRL1” value is given as “repressed” and the “expression of SerpineH1” value is recorded as “repressed”. Besides, the “expression of ZNF238 mRNA” value in the data set on T98G glioma cell line (3 days, quantitative PCR) is recorded as “induces; also recorded: elevated”. The “Expression of selected ZNF238 targets” value with T98G glioma cell line (HPRT normalization (FIG. 12C)) was “down-regulated”.
Take `O=c1[nH]cc(F)c(=O)[nH]1` [5-fluorouracil]: in data set [1] (reporter activity at 48 hr, various dosages (FIG. 38A, 39A)), the “inhibition of C/EBPb activity, C/EBPb gene reporter assay” value is reported as “inhibition”.
`COc1cc([C@@H]2c3cc4c(cc3[C@@H](O[C@@H]3O[C@@H]5CO[C@@H](C)O[C@H]5[C@H](O)[C@H]3O)[C@H]3COC(=O)[C@H]23)OCO4)cc(OC)c1O` [etoposide]: in data set [1] (pilot screen, microsource library (2000 compounds), SNB19), the “inhibition of CCAAT/enhancer-binding protein (CEBP) luciferase reporter” value was “inhibit”. For the same compound, in the data set on phospho-STAT3, the “inhibition of the active form of STAT3 (phospho-STAT3)” value is recorded as “inhibit”.
Regarding “shC/EBPβ: lentiviral shRNA specific for C/EBPβ purchased from Sigma (TRCN0000007442, SEQ ID NO: 225) (CCGGCGACTTCCTCTCCGACCTCTTCTCGAGAAGAGGTCGGAGAGGAAGTCGTTTTT)”, in data set [2], the “Enrichment of ATF2 regulon on TF-knock-down gene expression profile by GSEA, nES” value is reported as 1.54; the “Enrichment of SOX15 regulon on TF-knock-down gene expression profile by GSEA, nES” value is recorded as 0.28; the “Enrichment of ZNF277 regulon on TF-knock-down gene expression profile by GSEA, nES” value is −0.79; the “Enrichment of ZNF500 regulon on TF-knock-down gene expression profile by GSEA, nES” value was −0.24. Further, in data set [2], the “Enrichment of the MGES on genes downregulated after MR-TF knock-down, nES” value is 3.23; the “Enrichment of C/EBPβ regulon on TF-knock-down gene expression profile by GSEA, nES” value was 1.91; the “Enrichment of FosL2 regulon on TF-knock-down gene expression profile by GSEA, nES” value is recorded as 3.83; the “Enrichment of Runx1 regulon on TF-knock-down gene expression profile by GSEA, nES” value was 0.55. Moreover, in data set [2], the “Enrichment of Stat3 regulon on TF-knock-down gene expression profile by GSEA, nES” value came to 2.49 and the “Enrichment of bHLH-B2 regulon on TF-knock-down gene expression profile by GSEA, nES” value stood at 1.74. Moreover, the “mice that developed tumors” value in the data set on SNB19 glioma cells is given as “one of four”. In the data set on GBM-BTICs and SNB19, the “C/EBPβ mRNA level relative to non-target shRNA transduced cells (fold ratio, median ± MAD)” value is 0.26 ± 0.119 and the “Stat3 mRNA level relative to non-target shRNA transduced cells (fold ratio, median ± MAD)” value is recorded as 1.13 ± 0.43. Besides, the “C/EBPβ mRNA level relative to non-target shRNA transduced cells (fold ratio, median ± MAD)” value with GBM-BTICs and SNB19 (listed as C/EBPβ shRNA) stood at 0.26.
On to “shStat3: lentiviral shRNA specific for Stat3 purchased from Sigma (TRCN0000020843, SEQ ID NO: 224) (CCGGGCAAAGAATCACATGCCACTTCTCGAGAAGTGGCATGTGATTCTTTGCTTTTT)”, for which, in data set [2], the “Enrichment of ATF2 regulon on TF-knock-down gene expression profile by GSEA, nES” value is on record as −0.24; the “Enrichment of SOX15 regulon on TF-knock-down gene expression profile by GSEA, nES” value is listed as −2.81; the “Enrichment of ZNF277 regulon on TF-knock-down gene expression profile by GSEA, nES” value is on record as −0.55; the “Enrichment of ZNF500 regulon on TF-knock-down gene expression profile by GSEA, nES” value was 0.20. In data set [2], the “Enrichment of the MGES on genes downregulated after MR-TF knock-down, nES” value is given as 3.59; the “Enrichment of C/EBPβ regulon on TF-knock-down gene expression profile by GSEA, nES” value was 2.43; the “Enrichment of FosL2 regulon on TF-knock-down gene expression profile by GSEA, nES” value is 4.98; the “Enrichment of Runx1 regulon on TF-knock-down gene expression profile by GSEA, nES” value is 2.41. For the same compound, in data set [2], the “Enrichment of Stat3 regulon on TF-knock-down gene expression profile by GSEA, nES” value came to 1.78 and the “Enrichment of bHLH-B2 regulon on TF-knock-down gene expression profile by GSEA, nES” value is on record as 0.59. The “mice that developed tumors” value with SNB19 glioma cells is recorded as “all mice”. In addition, in the data set with GBM-BTICs and SNB19, the “C/EBPβ mRNA level relative to non-target shRNA transduced cells (fold ratio, median ± MAD)” value is given as 0.87 ± 0.111 and the “Stat3 mRNA level relative to non-target shRNA transduced cells (fold ratio, median ± MAD)” value is recorded as 0.205 ± 0.052. In the data set on GBM-BTICs and SNB19 (listed as Stat3-shRNA), the “Stat3 mRNA level relative to non-target shRNA transduced cells (fold ratio, median ± MAD)” value is recorded as 0.205.
